{
  "source": "ChEMBL document CHEMBL1201862",
  "about": "“PubChem BioAssay data set” (2004)",
  "key": {"[1]": {"assay": "inhibitors of Vif binding to APOBEC3G peptide, primary screen, biochemical, TR-FRET, GST-Vif 1-94, biotin-A3G peptide, dose response retest (AID 1117319);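 note: TR-FRET signal of purified GST-Vif binding a biotinylated A3G peptide; inhibitors lower the FRET signal by blocking Vif and A3G binding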", "assay_type": "functional"}, "[2]": {"biological_target": "Luciferin 4-monooxygenase (Photinus pyralis, UniProt P08659)", "sequence (P08659 whole entry)": "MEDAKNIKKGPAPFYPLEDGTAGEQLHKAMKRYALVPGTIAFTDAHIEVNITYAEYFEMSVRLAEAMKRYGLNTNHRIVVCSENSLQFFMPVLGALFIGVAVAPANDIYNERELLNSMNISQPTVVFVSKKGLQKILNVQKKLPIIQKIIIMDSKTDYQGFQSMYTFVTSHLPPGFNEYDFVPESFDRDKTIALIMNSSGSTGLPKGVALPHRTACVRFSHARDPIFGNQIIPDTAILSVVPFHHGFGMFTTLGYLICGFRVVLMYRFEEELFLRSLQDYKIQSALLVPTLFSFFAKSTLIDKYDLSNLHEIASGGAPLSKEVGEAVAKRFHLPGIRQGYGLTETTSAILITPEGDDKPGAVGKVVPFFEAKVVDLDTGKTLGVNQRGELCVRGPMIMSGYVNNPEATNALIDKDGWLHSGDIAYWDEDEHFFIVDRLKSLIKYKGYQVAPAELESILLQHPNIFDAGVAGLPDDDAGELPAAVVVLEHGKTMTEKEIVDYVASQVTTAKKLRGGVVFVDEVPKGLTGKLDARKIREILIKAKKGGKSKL", "assay": "firefly luciferase enzyme inhibitors, dose response, biochemical, luminescence (AID 1891)"}, "[3]": {"assay": "Luminescence Cell-Based Dose Confirmation HTS to Identify Inhibitors of Platelet Dense Granule Release. [Related pubchem assays: 1663 (Primary HTS), 1678 (Summary of Project)]", "assay_type": "functional"}, "[4]": {"assay": "Fluorescence Cell-Based Dose Response to Identify Inhibitors of Thrombin Receptor-Activating Peptide SFLLRN-Mediated P-Selectin Induction on Platelets. [Related pubchem assays: 1663 (Primary HTS), 1889 (retest at dose ), 1891 (counterscreen), 1678 (Project Summary)]", "assay_type": "functional"}, "Ephrin type-A receptor 4": {"biological_target": "Ephrin type-A receptor 4 (Mus musculus, UniProt Q03137)", "sequence (Q03137 whole entry)": "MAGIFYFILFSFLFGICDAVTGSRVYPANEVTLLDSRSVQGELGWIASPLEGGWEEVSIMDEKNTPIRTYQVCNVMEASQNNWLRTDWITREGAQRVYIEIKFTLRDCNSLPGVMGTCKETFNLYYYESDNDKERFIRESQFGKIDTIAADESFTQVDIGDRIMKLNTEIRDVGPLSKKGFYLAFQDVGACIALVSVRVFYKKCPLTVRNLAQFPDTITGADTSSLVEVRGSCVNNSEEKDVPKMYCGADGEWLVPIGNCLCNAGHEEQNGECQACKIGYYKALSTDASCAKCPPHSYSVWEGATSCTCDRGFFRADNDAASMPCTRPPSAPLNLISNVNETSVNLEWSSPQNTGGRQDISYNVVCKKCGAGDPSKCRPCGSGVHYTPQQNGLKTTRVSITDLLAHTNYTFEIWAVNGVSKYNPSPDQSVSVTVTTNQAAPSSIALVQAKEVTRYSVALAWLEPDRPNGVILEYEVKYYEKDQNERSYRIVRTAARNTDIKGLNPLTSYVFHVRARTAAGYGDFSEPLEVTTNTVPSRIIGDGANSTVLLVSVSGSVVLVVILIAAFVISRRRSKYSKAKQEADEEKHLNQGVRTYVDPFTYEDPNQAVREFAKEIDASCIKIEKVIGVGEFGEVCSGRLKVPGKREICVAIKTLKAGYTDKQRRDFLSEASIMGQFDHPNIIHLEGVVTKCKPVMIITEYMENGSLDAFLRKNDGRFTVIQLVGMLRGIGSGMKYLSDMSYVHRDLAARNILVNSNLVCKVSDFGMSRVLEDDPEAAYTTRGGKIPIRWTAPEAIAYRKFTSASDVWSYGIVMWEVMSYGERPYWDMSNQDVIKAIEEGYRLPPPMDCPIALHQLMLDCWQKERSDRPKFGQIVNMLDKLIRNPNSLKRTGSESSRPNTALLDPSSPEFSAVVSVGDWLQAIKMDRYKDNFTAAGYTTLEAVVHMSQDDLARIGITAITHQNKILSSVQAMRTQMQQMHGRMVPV", "assay": "inhibitors of EphA4 binding to KYL peptide, primary screen, biochemical, colorimetric, mouse EphA4 (AID 689)", "assay_type": "functional"}, "Cytochrome P450 1A2": {"biological_target": "T1, Cytochrome P450 1A2 (Homo sapiens, UniProt P05177)", "T1 sequence (P05177 whole entry)": "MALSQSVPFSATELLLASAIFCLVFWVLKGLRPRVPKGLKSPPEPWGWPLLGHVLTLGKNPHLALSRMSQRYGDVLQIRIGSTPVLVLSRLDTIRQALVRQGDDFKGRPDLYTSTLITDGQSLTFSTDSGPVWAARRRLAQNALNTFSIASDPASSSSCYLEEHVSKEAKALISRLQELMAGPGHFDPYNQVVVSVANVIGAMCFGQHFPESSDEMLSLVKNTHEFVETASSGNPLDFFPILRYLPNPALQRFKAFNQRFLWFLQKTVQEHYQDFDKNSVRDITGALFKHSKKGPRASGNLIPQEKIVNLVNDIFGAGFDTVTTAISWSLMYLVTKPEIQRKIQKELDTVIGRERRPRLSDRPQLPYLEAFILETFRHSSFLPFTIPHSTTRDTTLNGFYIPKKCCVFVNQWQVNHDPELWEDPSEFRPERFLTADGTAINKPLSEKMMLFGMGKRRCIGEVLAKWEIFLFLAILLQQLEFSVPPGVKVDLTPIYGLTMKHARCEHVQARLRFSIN"}, "[5]": {"assay": "NIH-3T3 fibroblast cytotoxicity, dose response, cytotoxicity control, cell-based, fluorescence, Alamar Blue, secondary assay (AID 2327);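 note: NIH-3T3 mouse fibroblasts cultured with fluconazole at 8 µg/mL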", "assay_type": "functional"}, "Cytochrome P450 2C9": {"biological_target": "Cytochrome P450 2C9 (Homo sapiens, UniProt P11712)", "sequence (P11712 whole entry)": "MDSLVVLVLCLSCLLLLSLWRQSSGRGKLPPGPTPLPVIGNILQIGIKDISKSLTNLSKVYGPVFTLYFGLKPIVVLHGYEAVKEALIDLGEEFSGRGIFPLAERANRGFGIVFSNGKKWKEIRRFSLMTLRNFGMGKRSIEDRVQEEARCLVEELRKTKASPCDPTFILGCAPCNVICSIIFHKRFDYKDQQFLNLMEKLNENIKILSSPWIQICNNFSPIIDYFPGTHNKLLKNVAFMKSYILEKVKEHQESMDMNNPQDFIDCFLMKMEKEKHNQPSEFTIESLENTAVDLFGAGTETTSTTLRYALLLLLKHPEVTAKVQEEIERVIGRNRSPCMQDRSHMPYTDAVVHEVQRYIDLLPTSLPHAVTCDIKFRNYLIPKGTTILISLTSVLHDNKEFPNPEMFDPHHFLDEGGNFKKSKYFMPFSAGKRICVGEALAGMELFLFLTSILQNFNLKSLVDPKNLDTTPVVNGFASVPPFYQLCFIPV"}, "[6]": {"assay": "C. albicans growth with fluconazole, confirmation, fluorescence, retest (AID 2467)", "assay_type": "functional, cell-based"}, "[7]": {"assay": "HEp-2 cell cytotoxicity, dose response, cytotoxicity control for RSV inhibitor project, HTS (AID 2410)", "assay_type": "functional", "conditions": "human respiratory syncytial virus"}, "Estrogen receptor": {"biological_target": "Estrogen receptor (Homo sapiens, UniProt P03372)", "sequence (P03372 whole entry)": "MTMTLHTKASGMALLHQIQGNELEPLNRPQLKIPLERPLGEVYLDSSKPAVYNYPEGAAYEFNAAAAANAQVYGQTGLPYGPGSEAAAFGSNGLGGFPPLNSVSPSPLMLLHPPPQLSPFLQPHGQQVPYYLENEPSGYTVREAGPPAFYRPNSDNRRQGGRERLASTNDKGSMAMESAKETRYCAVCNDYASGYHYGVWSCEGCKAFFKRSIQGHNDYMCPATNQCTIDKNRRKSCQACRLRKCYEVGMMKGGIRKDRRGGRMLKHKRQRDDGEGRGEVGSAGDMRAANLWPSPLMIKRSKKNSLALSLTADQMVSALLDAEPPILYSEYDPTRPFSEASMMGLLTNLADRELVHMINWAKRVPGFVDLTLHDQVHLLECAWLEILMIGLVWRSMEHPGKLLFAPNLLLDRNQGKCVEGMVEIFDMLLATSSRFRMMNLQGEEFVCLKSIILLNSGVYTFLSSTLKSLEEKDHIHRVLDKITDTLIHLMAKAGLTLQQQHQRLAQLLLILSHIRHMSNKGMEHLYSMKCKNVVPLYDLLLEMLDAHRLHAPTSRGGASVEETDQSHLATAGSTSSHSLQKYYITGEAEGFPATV"}, "Genome polyprotein": {"biological_target": "Genome polyprotein (Hepatitis C virus, UniProt Q2Q167)", "sequence (Q2Q167 whole entry)": "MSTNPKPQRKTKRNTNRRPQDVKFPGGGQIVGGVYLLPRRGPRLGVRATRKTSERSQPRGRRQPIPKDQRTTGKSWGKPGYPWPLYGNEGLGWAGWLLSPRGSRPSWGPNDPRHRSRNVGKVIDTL", "assay": "HCV core protein dimerization inhibitors, dose response, biochemical, TR-FRET (AID 2159);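 note: blocks dimerization of HCV core protein measured by TR-FRET between tagged core106 pairs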", "set-up": "species or system Hepacivirus hominis"}, "[8]": {"biological_target": "Diphosphomevalonate decarboxylase (Streptococcus pneumoniae serotype 2 (strain D39 / NCTC 7466), UniProt Q9FD53)", "sequence (Q9FD53 whole entry)": "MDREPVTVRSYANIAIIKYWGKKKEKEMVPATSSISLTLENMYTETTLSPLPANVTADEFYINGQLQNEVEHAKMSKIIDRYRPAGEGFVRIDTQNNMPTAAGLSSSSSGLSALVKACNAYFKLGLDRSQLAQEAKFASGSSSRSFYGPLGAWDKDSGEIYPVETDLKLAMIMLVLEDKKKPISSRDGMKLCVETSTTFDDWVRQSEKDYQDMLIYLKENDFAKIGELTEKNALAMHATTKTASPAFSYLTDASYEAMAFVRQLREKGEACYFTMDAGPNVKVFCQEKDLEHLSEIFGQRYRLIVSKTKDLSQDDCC", "assay": "S. pneumoniae DPM-DC inhibition retest, confirmation, biochemical, cuvette format, coupled NADH fluorescence (AID 1028)", "assay_type": "functional"}, "[9]": {"assay": "half-maximal inhibitory concentration for glucagon-like peptide-1 release, STC-1 cell line, dose-response (AID 1117345)", "assay_type": "functional, cell-based"}, "[10]": {"assay": "Glucagon-like peptide 1 release potency, NCI-H716 cell line, dose-response, half-maximal inhibitory concentration (AID 1117344)", "assay_type": "functional, cell-based"}, "[11]": {"assay": "Late-stage results from the probe development effort to identify antagonists of arginine vasopressin receptor 1a (AVPR1a): fluorescence-based cell-based dose response OXTR inhibition counterscreen assay.", "assay_type": "functional"}, "Vasopressin V2 receptor": {"biological_target": "Vasopressin V2 receptor (Homo sapiens, UniProt P30518)", "sequence (P30518 whole entry)": "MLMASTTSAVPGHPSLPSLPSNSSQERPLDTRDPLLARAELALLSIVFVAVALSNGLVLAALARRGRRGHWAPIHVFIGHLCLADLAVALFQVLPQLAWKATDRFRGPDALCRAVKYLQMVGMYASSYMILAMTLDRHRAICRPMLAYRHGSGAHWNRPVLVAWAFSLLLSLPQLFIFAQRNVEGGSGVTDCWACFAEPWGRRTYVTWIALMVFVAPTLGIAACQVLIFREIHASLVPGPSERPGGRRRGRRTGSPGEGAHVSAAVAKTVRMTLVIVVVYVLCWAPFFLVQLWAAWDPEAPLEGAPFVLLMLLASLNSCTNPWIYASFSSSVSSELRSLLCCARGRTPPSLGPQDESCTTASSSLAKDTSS", "assay": "Late-stage results from the probe development effort to identify antagonists of arginine vasopressin receptor 1a (AVPR1a): fluorescence-based cell-based dose response AVPR2 inhibition counterscreen assay.", "assay_type": "functional"}, "[12]": {"assay": "Late-stage results from the probe development effort to identify antagonists of arginine vasopressin receptor 1a (AVPR1a): fluorescence-based cell-based dose response AVPR1a inhibition assay.", "assay_type": "functional"}, "Vasopressin V1b receptor": {"biological_target": "Vasopressin V1b receptor (Homo sapiens, UniProt P47901)", "sequence (P47901 whole entry)": "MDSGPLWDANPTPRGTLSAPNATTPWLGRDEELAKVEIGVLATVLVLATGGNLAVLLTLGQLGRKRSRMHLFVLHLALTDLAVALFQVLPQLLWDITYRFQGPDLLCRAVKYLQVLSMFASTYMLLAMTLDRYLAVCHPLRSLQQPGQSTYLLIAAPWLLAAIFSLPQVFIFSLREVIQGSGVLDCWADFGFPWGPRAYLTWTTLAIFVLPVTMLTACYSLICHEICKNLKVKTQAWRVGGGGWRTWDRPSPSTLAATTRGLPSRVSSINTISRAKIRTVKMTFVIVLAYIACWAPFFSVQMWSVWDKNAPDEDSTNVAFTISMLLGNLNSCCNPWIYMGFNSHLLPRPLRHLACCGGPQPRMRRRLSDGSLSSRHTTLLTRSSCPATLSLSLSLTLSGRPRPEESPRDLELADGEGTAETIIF", "assay": "Late-stage results from the probe development effort to identify antagonists of arginine vasopressin receptor 1a (AVPR1a): fluorescence-based cell-based dose response AVPR1b inhibition counterscreen assay.", "assay_type": "functional"}, "[13]": {"biological_target": "T2, Low molecular weight phosphotyrosine protein phosphatase (Homo sapiens, UniProt P24666)", "T2 sequence (P24666 whole entry)": "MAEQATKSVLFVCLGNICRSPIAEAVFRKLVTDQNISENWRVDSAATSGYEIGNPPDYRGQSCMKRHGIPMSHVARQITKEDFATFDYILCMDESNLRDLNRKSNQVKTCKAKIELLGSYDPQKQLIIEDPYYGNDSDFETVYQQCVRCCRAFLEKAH", "assay": "LMPTP phosphatase inhibitors, colorimetric pNPP readout, dose response, orthogonal assay, biochemical, absorbance, pNPP substrate, LMPTP-A isoform, set 2 (AID 743308)", "assay_type": "functional"}, "[14]": {"biological_target": "T2, Low molecular weight phosphotyrosine protein phosphatase", "assay": "LMPTP phosphatase inhibitors, dose response, biochemical, OMFP substrate, fluorescence intensity, set 2 (AID 743307)", "assay_type": "functional"}, "[15]": {"assay": "HeLa 2N DNA content increase, dose response, cell-based, IC50 (AID 1117349)", "assay_type": "functional"}, "P388": {"tested_on": "P388", "assay": "cells", "assay_type": "functional", "conditions": "Mus musculus"}, "SN12K1": {"tested_on": "SN12K1", "assay": "cells", "assay_type": "functional", "conditions": "Homo sapiens"}, "[16]": {"assay": "SNU-C1 cell viability reduction, dose response, CellTiter-Glo luminescence (AID 1117323)", "assay_type": "functional, cell-based"}, "P388/ADR": {"tested_on": "P388/ADR", "assay": "cells", "assay_type": "functional", "conditions": "Mus musculus"}, "[17]": {"assay": "HeLa 4N DNA content increase, dose response, cell-based, IC50 (AID 1117351)", "assay_type": "functional"}},
  "note": "Active and inactive are the calls of the source.",
  "data": [
    {"smiles": "Cc1noc(C)c1C(=O)N1CCc2ccccc2C1", "values": [
      {"measurement": "IC50", "setting": "[1]", "value": "> 100 µM (active)"}
    ]},
    {"smiles": "COc1ccc(C(=O)Nc2ccc(N3CCOCC3)cc2)cc1OC", "values": [
      {"measurement": "EC50", "setting": "[2]", "value": "24.2 µM (active)"},
      {"measurement": "EC50", "setting": "[3]", "value": "1.95 µM (active)"},
      {"measurement": "EC50", "setting": "[4]", "value": "> 100 µM (not active)"}
    ]},
    {"smiles": "O=C(O)c1ccccc1C(=O)NNc1ccc(F)cc1", "values": [
      {"measurement": "IC50", "setting": "Ephrin type-A receptor 4", "value": "> 100 µM (not active)"},
      {"measurement": "AC50", "setting": "Cytochrome P450 1A2", "value": "20 µM (inconclusive)"},
      {"measurement": "EC50", "setting": "[5]", "value": "25.5 µM (active)"},
      {"measurement": "AC50", "setting": "Cytochrome P450 2C9", "value": "0.0251 µM (inconclusive)"},
      {"measurement": "EC50", "setting": "[6]", "value": "> 38 µM (not active)"}
    ]},
    {"smiles": "CCn1c(SCC(=O)Nc2ccc3c(c2)c2ccccc2n3CC)nnc1-c1ccco1", "values": [
      {"measurement": "CC50", "setting": "[7]", "value": "48.9 µM (active)"},
      {"measurement": "IC50", "setting": "Estrogen receptor", "value": "> 50 µM (not active)"},
      {"measurement": "IC50", "setting": "Genome polyprotein", "value": "> 49.8 µM (not active)"}
    ]},
    {"smiles": "CCN(CC)C(=O)c1cccc(-n2sc3ccccc3c2=O)c1", "values": [
      {"measurement": "IC50", "setting": "[8]", "value": "16.7 µM (active)"}
    ]},
    {"smiles": "CCCCCCCC/C=C\\CCCCCCCCN", "values": [
      {"measurement": "IC50", "setting": "[9]", "value": "> 40 µM (inactive)"},
      {"measurement": "IC50", "setting": "[10]", "value": "14.8 µM (inactive)"}
    ]},
    {"smiles": "O=C(C1CCN(c2ccc(C(F)(F)F)cn2)CC1)N(CC1CC1)c1ccc(Cl)cc1", "values": [
      {"measurement": "IC50", "setting": "[11]", "value": "12.6 µM (inactive)"},
      {"measurement": "IC50", "setting": "Vasopressin V2 receptor", "value": "19.3 µM (inactive)"},
      {"measurement": "IC50", "setting": "[12]", "value": "0.123 µM (active)"},
      {"measurement": "IC50", "setting": "Vasopressin V1b receptor", "value": "31.7 µM (inactive)"}
    ]},
    {"smiles": "c1ccc(-c2nc(N3CCSCC3)c3ccccc3n2)cc1", "values": [
      {"measurement": "IC50", "setting": "[13]", "value": "> 80 µM (inactive)"},
      {"measurement": "IC50", "setting": "[14]", "value": "> 80 µM (inactive)"}
    ]},
    {"smiles": "CN(Cc1cnc2nc(N)nc(N)c2n1)c1ccc(C(=O)N[C@@H](CCC(=O)O)C(=O)O)cc1", "note": "[METHOTREXATE]", "values": [
      {"measurement": "IC50", "setting": "[15]", "value": "> 10 µM (inactive)"},
      {"measurement": "GI50", "setting": "P388", "value": "0.025 µM (active)"},
      {"measurement": "GI50", "setting": "SN12K1", "value": "0.025 µM (active)"},
      {"measurement": "IC50", "setting": "[16]", "value": "> 20 µM (inactive)"},
      {"measurement": "GI50", "setting": "P388/ADR", "value": "0.025 µM (active)"},
      {"measurement": "IC50", "setting": "[17]", "value": "> 10 µM (inactive)"}
    ]}
  ]
}
